{
  "source": "paper PMC3962778",
  "about": "(Journal of medicinal chemistry, 2014)",
  "key": {"[1]": {"tested_on": "T. brucei brucei (strain BF427)", "assay": "In vitro parasite growth arrest assay", "format": "cell-based, Trypanosoma brucei brucei", "conditions": "for EC50: Trypanosoma brucei"}, "[2]": {"tested_on": "T. brucei rhodesiense STIB 900 strain", "assay": "Anti-parasite efficacy studies in mice", "conditions": "for Cured / Day of euthanasia: mice, oral, 5 days"}, "[3]": {"conditions": "5 mg/kg, 2 doses per day, Exp 1 and Exp 2"}, "[4]": {"conditions": "20 mg/kg, 1 dose per day, Exp 2"}, "[5]": {"conditions": "20 mg/kg, 2 doses per day, Exp 1"}, "[6]": {"conditions": "50 mg/kg, 1 dose per day, Exp 1"}},
  "note": "Values joined by “and” are separate entries in the source; they are usually repeats but may differ in a detail not shown here. Equal entries are not always repeated. Where two headings read alike, the source gives them in different places.",
  "data": [
    {"smiles": "N=C(N)c1ccc(OCCCCCOc2ccc(C(=N)N)cc2)cc1", "note": "[Pentamidine, reference compound]", "values": [
      {"measurement": "EC50", "setting": "[1]; read-out: EC50, concentration of compound required to inhibit growth by 50%", "result": 1.7, "unit": "nM"},
      {"measurement": "EC50", "setting": "[1]; read-out: EC50 against T. brucei in vitro", "result": 1.2, "unit": "nM"}
    ]},
    {"smiles": "Nc1ccc(Cl)c(-c2nc3ncccc3o2)c1", "note": "[Compound 36]", "values": [
      {"measurement": "inhibition of T. brucei growth in vitro", "setting": "[1]; tested up to 20 μM", "result": "no inhibition"}
    ]},
    {"smiles": "O=C(Nc1ccc(F)c(-c2nc3cc(-c4ccccc4)cnc3[nH]2)c1)N1CCCC1", "note": "[Compound 64]", "values": [
      {"measurement": "extent of growth inhibition of T. brucei in vitro", "setting": "[1]", "result": "complete growth inhibition"},
      {"measurement": "lowest oral dose at which infected mice were cured (dosed orally down to)", "setting": "[2]; T. brucei infected mice", "result": 2.5, "unit": "mg/kg"},
      {"measurement": "Cured", "setting": "[2]; 1 mg/kg, 2 doses per day, Exp 2", "result": "0 of 5 and 0/5"},
      {"measurement": "Cured", "setting": "[2]; 2.5 mg/kg, 2 doses per day, Exp 2", "result": "2 of 5 and 2/5"},
      {"measurement": "Cured", "setting": "[2]; 5 mg/kg, 1 dose per day, Exp 2", "result": "2 of 5 and 2/5"},
      {"measurement": "Cured", "setting": "[2]; [3]", "result": "all mice were cured and 5/5"},
      {"measurement": "Day of euthanasia", "setting": "[2]; [3]", "result": 60},
      {"measurement": "Cured", "setting": "[2]; [4]", "result": "Cures in all mice and 5/5"},
      {"measurement": "Day of euthanasia", "setting": "[2]; [4]", "result": 60},
      {"measurement": "Cured", "setting": "[2]; [5]", "result": "Cures in all mice and 5/5"},
      {"measurement": "Day of euthanasia", "setting": "[2]; [5]", "result": 60},
      {"measurement": "Cured", "setting": "[2]; [6]", "result": "Cures in all mice and 5/5"},
      {"measurement": "Day of euthanasia", "setting": "[2]; [6]", "result": 60},
      {"measurement": "Cured", "setting": "[2]; 50 mg/kg, 2 doses per day, Exp 1", "result": "Cures in all mice and 5/5"},
      {"measurement": "Day of euthanasia", "setting": "[2]; 50 mg/kg, 2 doses per day, Exp 1, day 60 = cured", "result": 60}
    ]}
  ]
}
